pIC50: −log10 of the molar value.
What was measured:
[1] = biological target: T1, bovine p110α (Bos taurus, UniProt P32871); assay: Inhibition of PI3K (p110α subtype); type: biochemical; details: compared with known PI3K inhibitor LY294002
T1 construct: made in house
Procedure: The resulting mixture was stirred and then centrifuged. After the organic layer was extracted twice with 150 μl of MeOH/1M HCl (1:1). The radioactivity was measured using Cerenkov light.

[2] = tested on: HCT116 cells; type: cell-based; details: HCT116 colon cancer cells, incubation over 72 hours, Alamar Blue, result in words
Procedure: HCT116 cells from a colon cancer cell line were cultured in McCoy's 5A medium (GIBCO) supplemented with 10% fetal bovine serum. HCT116 cells were inoculated on a 96 well plate (5000 cells/well) followed by overnight incubation. The test compound diluted with the medium was added to the medium in a final concentration of 0.1 to 30 μM (final DMSO concentration, 1%). After incubation for over 72 hours, Alamar Blue reagent was added to the medium. Two hours after the addition, a ratio of fluorescent intensity at an excitation wavelength of 530 nm to that at an emission wavelength of 590 nm was measured to determine the IC50.

[3] = tested on: A375 cells; assay: Melanoma cell growth inhibition; type: cell-based; details: Homo sapiens, A-375, incubation over 46 hours, Alamar Blue
Procedure: A375 cells from a melanoma cell line were cultured in DMEM medium (GIBCO) supplemented with 10% fetal bovine serum. A375 cells at 10,000 cells/100 μl were added to a 96 well plate which contained 1 μl/well of the test compounds (final concentration of 0.001˜30 μM). After incubation for over 46 hours, Alamar Blue reagent was added to the medium (10 μl/well). Two hours after the addition, a ratio of fluorescent intensity at an excitation wavelength of 530 nm to that at an emission wavelength of 590 nm was measured to determine the IC50 of the test compounds in the same manner as in the above examples.

T1 sequence (P32871 whole entry): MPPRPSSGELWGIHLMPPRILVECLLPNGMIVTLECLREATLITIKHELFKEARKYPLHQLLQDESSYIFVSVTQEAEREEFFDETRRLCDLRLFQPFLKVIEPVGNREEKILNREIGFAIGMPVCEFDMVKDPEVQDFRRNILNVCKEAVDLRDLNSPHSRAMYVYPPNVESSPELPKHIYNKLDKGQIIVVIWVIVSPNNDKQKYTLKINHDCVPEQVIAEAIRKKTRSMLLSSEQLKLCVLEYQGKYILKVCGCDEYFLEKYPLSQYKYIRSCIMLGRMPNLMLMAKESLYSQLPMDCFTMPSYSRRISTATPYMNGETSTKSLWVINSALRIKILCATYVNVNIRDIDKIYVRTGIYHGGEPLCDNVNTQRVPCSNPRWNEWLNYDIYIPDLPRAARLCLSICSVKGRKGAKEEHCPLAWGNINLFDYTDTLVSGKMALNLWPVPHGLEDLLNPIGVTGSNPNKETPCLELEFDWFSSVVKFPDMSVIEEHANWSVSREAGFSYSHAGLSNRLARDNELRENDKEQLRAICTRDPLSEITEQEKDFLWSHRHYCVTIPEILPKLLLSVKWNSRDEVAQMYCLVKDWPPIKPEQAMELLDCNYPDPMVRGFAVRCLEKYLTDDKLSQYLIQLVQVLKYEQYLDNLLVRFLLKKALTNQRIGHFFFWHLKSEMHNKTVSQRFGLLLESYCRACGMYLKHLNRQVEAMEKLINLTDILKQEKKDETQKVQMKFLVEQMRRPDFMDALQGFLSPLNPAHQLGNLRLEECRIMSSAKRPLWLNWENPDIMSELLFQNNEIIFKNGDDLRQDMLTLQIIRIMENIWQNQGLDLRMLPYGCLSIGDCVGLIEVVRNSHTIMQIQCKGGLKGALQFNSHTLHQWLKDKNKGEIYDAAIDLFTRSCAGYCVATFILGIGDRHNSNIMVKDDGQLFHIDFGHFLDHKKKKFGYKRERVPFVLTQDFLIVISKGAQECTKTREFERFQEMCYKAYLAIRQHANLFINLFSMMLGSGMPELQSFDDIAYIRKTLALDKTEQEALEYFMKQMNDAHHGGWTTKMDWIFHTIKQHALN

Structure (SMILES): Cc1ccc([N+](=O)[O-])cc1S(=O)(=O)n1ccc(-c2c(C)nc3ccc(Br)cn23)n1 [Compound 6, 3-(6-Bromo-2-methylimidazo[1,2-a]pyridin-3-yl)-1H-pyrazol-1-yl 2-methyl-5-nitrophenyl sulfone]
- PI3K inhibition, strength relative to LY294002 [1]: more than 10 times
- cancer cell growth inhibition activity [2]: good cancer cell growth inhibition activity

Structure (SMILES): Cc1ccc2ncc(C=NN(C)S(=O)(=O)c3cc([N+](=O)[O-])ccc3C)n2c1 [Compound 99, 1′,2-dimethyl-2′-[(6-methylimidazo[1,2-a]pyridin-3-yl)methylidene]-5-nitrobenzenesulfonohydrazide]
- pIC50 [3]: > 6.00

Source: US6653320B2, “Imidazopyridine derivatives” (Yamanouchi Pharmaceutical Co. Ltd., priority 2000, dated 2003)
